Experimental data reported in EP4671365A1, “KIT FOR INDUCING STEM CELLS TO DIFFERENTIATE INTO NK CELLS, USE OF KIT, AND USE OF COMBINATION OF NK CELLS AND TMZ IN TREATMENT FOR TMZ DRUG-RESISTANT GBM” (Xellsmart Biomedical (Suzhou) Co., Ltd, priority 2023, dated 2024).

What was measured:
[1] = tested on: resistant GBM (T98G); assay: In vitro killing of tumor target cells (CellTiter-Glo); assay type: cell-based
Experimental: Furthermore, in this example, the in vitro efficacy of iPSC-NK cells in combination with TMZ was explored by monitoring the killing of tumor target cells. • A. The procedures for the culture, digestion, and plating of GBM tumor cells T98G are described in Example 5. • B. TMZ preparation: See Example 5 for the procedures of treating cells. In this example, the cells were pre-treated at 1000 µM for 48 h. • C. iPSC-NK cells were prepared as described in Example 8. • D. Co-incubation for killing. According to the preset effector-to-target ratios (1:8, 1:4, and 1:1), an appropriate volume of iNK cells in an expansion culture was taken (note that the iNK cell viability should be kept at 90% or higher) and counted by AO/PI staining. According to the counting result, the cell suspension was adjusted to a density of 1 × 10^5 cells/mL. The tumor cells were seeded at 1 × 10^4 cells/well. After the adherent culture of T98G cells in the 96-well plates (6 h after re-digestion and inoculation), the NK cell suspension was added to the T98G plates according to the grouping design. After 18 h of co-incubation, the viability of the T98G cells was detected using the CellTiter-Glo® luminescent cell viability assay kit. Three replicates were set in each group. • E. Cell viability assay. At preset time points (8, 16, 24, and 48 h), the cells were collected. The CellTiter-Glo® luminescent cell viability assay kit was used according to the manufacturer's instructions. An appropriate volume of the CellTiter-Glo® solution was mixed with a DMEM medium in a ratio of 1:1 to prepare a working solution. The CellTiter-Glo® working solution was added to the 96-well plate at 50 µL/well. The plate was incubated at room temperature for 10 min in the dark and then detected on a microplate reader for the chemiluminescence. • F. Killing rate calculation. Killing rate (%) = (fluorescence intensity in the untreated group - fluorescence intensity in the treatment group)/fluorescence intensity in the untreated group × 100%. * denotes p < 0.05 in a T test, and ** denotes p < 0.01. […]

[2] = in vivo, cited from earlier work
[3] = tested on: sensitive GBM (U87); assay: Cell cycle assay (PI staining, flow cytometry); assay type: cell-based; details: TMZ 300 µM
Experimental: (§1) TMZ acts on DNA after being absorbed into tumor cells in the human body, causing alkylation damage to the DNAs, thereby forming DNA double-strand breaks or cross-linking, arresting the cell cycle, and triggering the proliferation arrest or apoptosis of the tumor cells. To explore the mechanism by which the resistant GBM cell strains resist TMZ, a cell cycle assay was performed to determine the effect of TMZ on the cell cycle of different GBM cell strains. A. Cell culture and treatment: See Example 5 for the procedures of U87 and T98G cell culture and TMZ treatment. The concentration of TMZ used in this example was 300 µM. B. Preparation of cell samples: The Beyotime cell cycle kit (Beyotime, C1052) was used according to the manufacturer's instructions. 1 × 10^6 cells were added to a centrifuge tube for later use and centrifuged at 1000 g for 3-5 min to precipitate the cells. The supernatant was discarded by pipetting, and 1 mL of pre-cooled PBS was added to resuspend the cells. The mixture was transferred to a 1.5 mL centrifuge tube. The cells were pelleted by centrifugation, and the supernatant was discarded by pipetting. C. Cell fixation: The cells were added to 1 mL of pre-cooled 70% ethanol, mixed well by pipetting, and fixed at 4 °C for 30 min. The mixture was centrifuged at about 1000 g for 3-5 min to pellet the cells. The supernatant was discarded by pipetting, and about 1 mL of PBS pre-cooled in an ice bath was added to resuspend the cells. The cells were pelleted again by centrifugation, and the supernatant was discarded by pipetting. D. Preparation of and staining with propidium iodide (PI) staining solution: Referring to Table 2, an appropriate amount of PI staining solution was prepared according to the number of samples to be tested. Table 2. Preparation of PI staining solutions
(§2) Staining: 0.5 mL of the PI staining solution was added to each tube of cell samples, and the cell pellet was slowly and fully resuspended and incubated in the dark at 37 °C for 30 min. The mixture was preserved at 4 °C or in an ice bath in the dark. The flow cytometry was completed within 24 h after the staining was completed.
(§3) E. Flow cytometry detection and analysis: The red fluorescence was detected at an excitation wavelength of 488 nm and the light scattering was also detected on a flow cytometer (Agilent, Novocyte3000). The cellular DNA content assay and light scattering analysis were performed using an appropriate analysis software (Agilent, Novoexpress).

[4] = tested on: resistant GBM (T98G); assay: Cell cycle assay (PI staining, flow cytometry); assay type: cell-based; details: TMZ 300 µM, compared to control DMSO
Experimental: as §1, §2, §3

[5] = tested on: TMZ-sensitive GBM (U87); assay: CellTiter-Glo cell viability assay, sensitivity response to TMZ; assay type: cell-based
Experimental: (§4) U87 and T98G cells were cultured until an 80%-90% confluence and digested with pancreatin (Beyotime, C0201-100mL) at 37 °C for 5 min. DMEM medium (Gibco, 11965084) of a two-fold volume was added to stop the digestion. The cell suspension was transferred to a centrifuge tube and centrifuged at 300 g for 5 min. The cell pellet was resuspended in DMEM medium, and the cells were counted by AO (acridine orange)/PI (propidium iodide) staining. According to the counting result, the density of the cell suspension was adjusted to 1 × 10^5 cells/mL. The cell suspension was added to the 96-well plate at 100 µL/well as required for grouping, and then the 96-well plate was incubated in an incubator at 37 °C overnight.
(§5) TMZ powder (Sigma, T2577-25MG) was dissolved in an appropriate volume of DMSO to prepare a TMZ stock solution at a concentration of 100 mM. The TMZ solution with the highest concentration (5000 µM) was prepared as follows: 225 µL of the TMZ stock solution was diluted with 4.5 mL of DMEM medium, and the resultant solution was then diluted to give TMZ working solutions at concentrations of 1000 µM, 500 µM, 200 µM, 100 µM, and 10 µM.
(§6) After the U87 and T98G cells were cultured overnight, and the adherent growth and the logarithmic growth phase were observed, the TMZ working solutions at the corresponding working concentration were added according to the grouping design at 100 µL/well, and the cells were incubated in the incubator. […]
(§7) The CellTiter-Glo® luminescent cell viability assay kit (Promega, G7572) was used, and the procedures in the manufacturer's instructions were performed. An appropriate volume of the CellTiter-Glo® solution was mixed with a DMEM medium in a ratio of 1:1 to prepare a working solution. The CellTiter-Glo® working solution was added to the 96-well plate at 50 µL/well. The plate was incubated at room temperature for 10 min in the dark and then detected on a microplate reader (TECAN, Infinite®200 PRO) for the chemiluminescence.
(§8) The assay and detection schemes were the same as those in Example 5.1, and a concentration of 300 µM in the sensitive interval in Example 5.1 was selected as the TMZ concentration.

[6] = tested on: TMZ-resistant GBM (T98G); assay: as above; assay type: cell-based
Experimental: as §4, §5, §6, §7, §8

[7] = tested on: T98G; assay: Flow cytometry of immune activation ligands after TMZ treatment; assay type: cell-based; details: TMZ 1000 µM, 48 h; CD112, CD155, B7-H6, CD54, CD70, CD48, CD1d, PD-L1
Text: Immune surveillance is an important mechanism for identifying and removing tumor cells, and the dynamic expression of proteins related to immune activation on the membrane of tumor cells is also the key to their recognition by immune cells or recognition escape. In this example, the changes in expression of immune-related proteins when GBM is resisting the effect of TMZ were further studied, so as to provide a theoretical basis for the immunotherapy. • A. GBM cell culture and treatment: See Example 5 for the procedures of T98G cell culture. The cells were cultured until an 80%-90% confluence and digested with pancreatin at 37 °C for 5 min. DMEM medium of a two-fold volume was added to stop the digestion. The cell suspension was transferred to a centrifuge tube and centrifuged at 300 g for 5 min. The cell pellet was resuspended in DMEM medium, and the cells were counted by AO/PI staining. According to the counting result, the density of the cell suspension was adjusted to 1 × 10^5 cells/mL. After that, an appropriate volume of TMZ stock solution (100 mM) was added to the cell suspension to reach a final TMZ concentration of 1000 µM in the cell suspension. […]
The cells treated with TMZ for 48 h were digested with a pancreatin digestion solution and centrifuged, and the supernatant was discarded. […] The cells were washed with PBS, centrifuged, resuspended, and detected on a flow cytometer. […]

[8] = TMZ 300 µM, 48 h, compared to control DMSO

Structure (SMILES): Cn1nnc2c(C(N)=O)ncn2c1=O [TMZ, 3,4-dihydro-3-methyl-4-oxoimidazo[5,1-d]-asymmetric-tetrazol-8-amide]
- killing effect against target cells ([1]; 8 h, 16 h, 24 h and 48 h, effector-to-target ratios 1:8, 1:4, 1:1, TMZ 1000 µM pretreatment 48 h): weak killing effect
- killing effects / in vitro killing activity ([1]; E:T = 1:1, co-incubation 8 h): substantially no killing effects
- killing effect ([1]; at 48 h, TMZ 1000 µM): about 10%
- oral bioavailability ([2]; po): ~100%
- concentration detected in the cerebrospinal fluid, of the TMZ plasma concentration [2]: about 20%
- DNA content in the G2/M phase ([3]; 24 h): 16.86%
- DNA content in the G2/M phase ([3]; 48 h): 23.22%
- DNA content in the G2/M phase ([3]; 72 h): 40.01%
- DNA in the G2/M phase [4]: did not change significantly
- viability at 200 µM ([5]; Homo sapiens, U-87 MG, TMZ 200 µM, 72 h, read-out: viable U87 cell count): ~50%
- viability at 300 µM ([5]; Homo sapiens, U-87 MG, TMZ 300 µM, at 72 h, read-out: viable U87 cell count): < 40%
- viability at 500 µM ([5]; Homo sapiens, U-87 MG, TMZ 500 µM, 72 h, read-out: viable U87 cell count): ~40%
- growth of U87 cells (microscopic results) [5, 8]: significantly inhibited
- viability at 200 µM ([6]; Homo sapiens, T98G, TMZ 200 µM, 72 h, read-out: viable T98G cell count): ≥ 80%
- viability at 300 µM ([6]; Homo sapiens, T98G, TMZ 300 µM, at 72 h, read-out: viable cell count (T98G)): > 80%
- viability at 500 µM ([6]; Homo sapiens, T98G, TMZ 500 µM, 72 h, read-out: viable T98G cell count): 70%
- growth of T98G cells (microscopic results) [6, 8]: not greatly different
- expression of immune activation ligands [7]: up-regulated expression to different extents
